Test results: patent publication US5219873A, “Compounds of 1,2,5,6-tetrahydropyridine which are useful as cholinergic agents” (Roussel UCLAF, priority 1987, dated 1993)
Where two headings read alike, the source gives them in different places.

Legend:
[1] = Hypothermic activity, male mice (body temperature); type: in vivo, mice (CD1 Charles Rivers); conditions: for ED (-1 C body temperature): Mus musculus, male mice, read-out: Effective dose (-1° C.)
Protocol: (§1) The products have been utilized in the hydrochloride form.
The test is carried out on male mice (CD1 Charles Rivers), weighing 25-30 g, fasting for 6 hours.
The temperature of the body is noted by means of a thermocouple placed in the rectum to about 1.5 cm and connected to an electric temperature recorder. […]
The degree of hypothermia is evaluated as the difference between the treated animals and the controls, and the dose necessary to reduce the body temperature by 1° C. is determined.
The duration of action of the products has been evaluated by using the dose which reduces the body temperature by 1° to 1.5° C.

[2] = system: ileum isolated from guinea-pig; assay: Test on ileum isolated from guinea-pig (contraction, agonist activity); type: cell-based; conditions: Cavia porcellus, Tyrode's solution, 37° C., read-out: pD2 (negative logarithm of the dose which produces 50% of the maximum effect) (converted)
Protocol: as §1
Pieces of the ileum are removed from guinea-pigs killed by decapitation. The isolated ileum is placed in 10 cm^3 of Tyrode's solution at 37° C. and aerated with a mixture of oxygen (95%) and carbon dioxide gas (5%). The contractions due to the products are recorded by means of a detector connected to a polygraph. The products to be tested are added at concentrations between 1.10^-3 M/l and 1.10^-8 M/l.
The products presenting a contraction effect are tested relative to atropine and hexamethonium to establish whether the activity is of the "muscarine" or "nicotine" type.
The agonist activity is expressed in pD2 (negative logarithm of the dose which produces 50% of the maximum effect.

[3] = Diarrhoeic activity, oral, male mice; type: in vivo, mice (CD1, Charles Rivers); conditions: Mus musculus, read-out: ED50 (dose which caused a diarrhoea in 50% of the animals)
Protocol: as §1
The test is carried out on male mice (CD1, Charles Rivers) weighing 25 to 30 g, fasting for 6 hours.
The control animals receive only the excipient.
After treatment, the animals are put separately in cages the base of which is covered with blotting paper and are put under observation for 30, 60, 120 and 180 minutes.
The sheets of absorbent paper are changed after each observation.
1: feces slightly soft with or without humid aureola.
2: feces slightly soft with presence of a well defined humid circle.
3: feces soft with presence of a large humid circle.
4: feces without consistency with presence of a very large humid circle.

[4] = system: central cholinergic system; conditions: cited from earlier work
[5] = intravenous route; cited from earlier work
[6] = Acute toxicity, oral, male mice; set-up: species or system mice (CD1 Charles Rivers); conditions: mouse, in vivo, mortality during 7 days
Protocol: as §1
The test was carried out on male mice (CD1 Charles Rivers) of 22 to 24 g, fasting for 16 hours. […] The mortality is noted during the 7 days following the treatment.

## COC(=O)C1=CCCN(C)C1 [Arecoline HBr, reference compound]
[1]; 3.5 mg/kg s.c., 0 min
  Variation of the Body Temperature: -0.1 °C
[1]; 3.5 mg/kg s.c., 30 min
  Variation of the Body Temperature: -1.5 °C
[1]; 3.5 mg/kg s.c., 60 min
  Variation of the Body Temperature: -0.1 °C
[1]; 3.5 mg/kg s.c., 120 min
  Variation of the Body Temperature: +0.2 °C
[1]; 3.5 mg/kg s.c., 180 min
  Variation of the Body Temperature: +0.2 °C
[1]; 200 mg/kg p.o., 0 min
  Variation of the Body Temperature: +0.1 °C
[1]; 200 mg/kg p.o., 30 min
  Variation of the Body Temperature: -1.1 °C
[1]; 200 mg/kg p.o., 60 min
  Variation of the Body Temperature: -1.0 °C
[1]; 200 mg/kg p.o., 120 min
  Variation of the Body Temperature: -0.2 °C
[1]; 200 mg/kg p.o., 180 min
  Variation of the Body Temperature: -0.1 °C

## COC(=O)C1=CCCN(C)C1 [Arecoline, reference compound]
[2]
  EC50: 0.331 µM
[3]
  ED50: 35 mg/kg
[4]
  activity by oral route: very weak activity by oral route
[1]; po, per os
  ED (-1 C body temperature): 194 mg/kg
[1]; sc, s.c.
  ED (-1 C body temperature): 3 mg/kg
[5]
  effect on patients having a memory defect: positive effect on patients having a memory defect

## CC(=NO)C1=CCCNC1 [Example 1, 3-acetyl-1,2,5,6-tetrahydropyridine-oxime]
[2]
  EC50: 5.62 µM
[6]
  LD50 at 168 h: 350 mg/kg
[3]
  ED50: 5 mg/kg
[1]; 10 mg/kg p.o., 0 min
  Variation of the Body Temperature: 0 °C
[1]; 10 mg/kg p.o., 30 min
  Variation of the Body Temperature: -0.7 °C
[1]; 10 mg/kg p.o., 60 min
  Variation of the Body Temperature: -1.0 °C
[1]; 10 mg/kg p.o., 120 min
  Variation of the Body Temperature: -0.2 °C
[1]; 10 mg/kg p.o., 180 min
  Variation of the Body Temperature: +0.1 °C
[1]; 10 mg/kg s.c., 0 min
  Variation of the Body Temperature: 0 °C
[1]; 10 mg/kg s.c., 30 min
  Variation of the Body Temperature: -0.6 °C
[1]; 10 mg/kg s.c., 60 min
  Variation of the Body Temperature: -0.8 °C
[1]; 10 mg/kg s.c., 120 min
  Variation of the Body Temperature: -0.2 °C
[1]; 10 mg/kg s.c., 180 min
  Variation of the Body Temperature: 0 °C
[1]; po, per os
  ED (-1 C body temperature): 9 mg/kg
[1]; sc, s.c.
  ED (-1 C body temperature): 11 mg/kg

## CON=C(C)C1=CCCN(C)C1 [Example 2, 1-methyl-3-acetyl-1,2,5,6-tetrahydropyridine-O-methyl-oxime]
[2]
  EC50: 14.1 µM
[6]
  LD50 at 168 h: 350 mg/kg
[3]
  ED50: > 100 mg/kg
[1]; 20 mg/kg p.o., 0 min
  Variation of the Body Temperature: +0.1 °C
[1]; 20 mg/kg p.o., 30 min
  Variation of the Body Temperature: -1.3 °C
[1]; 20 mg/kg p.o., 60 min
  Variation of the Body Temperature: -1.3 °C
[1]; 20 mg/kg p.o., 120 min
  Variation of the Body Temperature: -0.9 °C
[1]; 20 mg/kg p.o., 180 min
  Variation of the Body Temperature: 0 °C
[1]; 40 mg/kg s.c., 0 min
  Variation of the Body Temperature: +0.1 °C
[1]; 40 mg/kg s.c., 30 min
  Variation of the Body Temperature: -1.0 °C
[1]; 40 mg/kg s.c., 60 min
  Variation of the Body Temperature: -1.4 °C
[1]; 40 mg/kg s.c., 120 min
  Variation of the Body Temperature: -1.1 °C
[1]; 40 mg/kg s.c., 180 min
  Variation of the Body Temperature: -0.8 °C
[1]; po, per os
  ED (-1 C body temperature): 12 mg/kg
[1]; sc, s.c.
  ED (-1 C body temperature): 25 mg/kg

## CON=C(C)C1=CCCNC1 [Example 3, 3-acetyl-1,2,5,6-tetrahydropyridine-O-methyl-oxime]
[2]
  EC50: 0.0316 µM
[6]
  LD50 at 168 h: 125 mg/kg
[3]
  ED50: 0.85 mg/kg
[1]; 1 mg/kg p.o., 0 min
  Variation of the Body Temperature: +0.1 °C
[1]; 1 mg/kg p.o., 30 min
  Variation of the Body Temperature: -1.1 °C
[1]; 1 mg/kg p.o., 60 min
  Variation of the Body Temperature: -1.0 °C
[1]; 1 mg/kg p.o., 120 min
  Variation of the Body Temperature: -0.1 °C
[1]; 1 mg/kg p.o., 180 min
  Variation of the Body Temperature: -0.1 °C
[1]; 1 mg/kg s.c., 0 min
  Variation of the Body Temperature: +0.1 °C
[1]; 1 mg/kg s.c., 30 min
  Variation of the Body Temperature: -1.0 °C
[1]; 1 mg/kg s.c., 60 min
  Variation of the Body Temperature: -0.8 °C
[1]; 1 mg/kg s.c., 120 min
  Variation of the Body Temperature: +0.1 °C
[1]; 1 mg/kg s.c., 180 min
  Variation of the Body Temperature: +0.1 °C
[1]; po, per os
  ED (-1 C body temperature): 0.87 mg/kg
[1]; sc, s.c.
  ED (-1 C body temperature): 0.91 mg/kg

## CON=C(C)C1=CCCN(O)C1 [Example 12, 1-N-hydroxyl-3-acetyl-1,2,5,6-tetrahydropyridine-O-methyl-oxime]
[2]
  EC50: 4.07 µM
[6]
  LD50 at 168 h: 175 mg/kg
[3]
  ED50: 1 mg/kg
[1]; 1 mg/kg p.o., 0 min
  Variation of the Body Temperature: 0 °C
[1]; 1 mg/kg p.o., 30 min
  Variation of the Body Temperature: -1.3 °C
[1]; 1 mg/kg p.o., 60 min
  Variation of the Body Temperature: -1.1 °C
[1]; 1 mg/kg p.o., 120 min
  Variation of the Body Temperature: 0 °C
[1]; 1 mg/kg p.o., 180 min
  Variation of the Body Temperature: 0 °C
[1]; 1 mg/kg s.c., 0 min
  Variation of the Body Temperature: -0.1 °C
[1]; 1 mg/kg s.c., 30 min
  Variation of the Body Temperature: -1.4 °C
[1]; 1 mg/kg s.c., 60 min
  Variation of the Body Temperature: -1.3 °C
[1]; 1 mg/kg s.c., 120 min
  Variation of the Body Temperature: +0.1 °C
[1]; 1 mg/kg s.c., 180 min
  Variation of the Body Temperature: 0 °C
[1]; po, per os
  ED (-1 C body temperature): 0.77 mg/kg
[1]; sc, s.c.
  ED (-1 C body temperature): 0.72 mg/kg
